Read-outs that look alike come from different tables or passages of the source. Ends that are not written are not given here. Peptide text beside a SMILES is read from it. * marks the point of attachment. Biotin = O=C1N[C@H]2[C@H](CS[C@H]2CCCCC(=O)*)N1
Tests used:
Type in all cases: binding
[1] = biological target: T1, PDZ protein (GST-PDZ fusion) (Homo sapiens, UniProt O14907); test: G' assay (10 uM PL peptide), results of TABLE 7 and TABLE 12; details: PDZ TIP1, PDZ Domain 1
T1 construct: made in house; host or cells: E. coli (DH5alpha, BL21 or JM109)
T1 sequence (O14907 1-124): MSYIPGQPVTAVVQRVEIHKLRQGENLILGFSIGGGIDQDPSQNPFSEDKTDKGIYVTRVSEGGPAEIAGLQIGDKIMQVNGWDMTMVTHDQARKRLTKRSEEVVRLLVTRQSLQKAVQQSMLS
Outline: (§1)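 Biotinylated PL peptides at 10 uM (vs 20 uM in G^0 assay) bound to GST-PDZ fusions; PDZ protein at 5 ug/ml unless another concentration listed. Bound peptide read as A450 nm, classified 0–5 (0 = A450 0; 5 = A450 >4 repeated).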

[2] = biological target: T2, PDZ protein (GST-PDZ fusion) (Homo sapiens, UniProt O15018); test: as above
T2 construct: made in house; host or cells: E. coli (DH5alpha, BL21 or JM109)
Outline: as §1

[3] = biological target: T3, PDZ protein (GST-PDZ fusion) (Homo sapiens, UniProt P57105); test: as above; details: PDZ Outer Membrane, PDZ Domain 1
T3 construct: made in house; host or cells: E. coli (DH5alpha, BL21 or JM109)
T3 sequence (P57105 1-145): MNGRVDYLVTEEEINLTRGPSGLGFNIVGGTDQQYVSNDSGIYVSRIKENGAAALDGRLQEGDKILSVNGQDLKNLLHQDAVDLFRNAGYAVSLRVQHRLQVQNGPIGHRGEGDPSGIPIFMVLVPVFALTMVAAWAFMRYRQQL
Outline: as §1

[4] = biological target: T4, PDZ protein (GST-PDZ fusion) (Homo sapiens, UniProt P78352); test: as above
T4 construct: made in house; host or cells: E. coli (DH5alpha, BL21 or JM109)
Outline: as §1

[5] = biological target: T5, PDZ protein (GST-PDZ fusion) (Homo sapiens, UniProt Q12959); test: as above
T5 construct: made in house; host or cells: E. coli (DH5alpha, BL21 or JM109)
Outline: as §1

[6] = biological target: T6, PDZ protein (GST-PDZ fusion) (Homo sapiens, UniProt Q13796); test: as above; details: PDZ hAPXL, PDZ Domain 1
T6 construct: made in house; host or cells: E. coli (DH5alpha, BL21 or JM109)
Outline: as §1

[7] = biological target: T7, PDZ protein (GST-PDZ fusion) (Homo sapiens, UniProt Q14160); test: as above
T7 construct: made in house; host or cells: E. coli (DH5alpha, BL21 or JM109)
Outline: as §1

[8] = biological target: T8, PDZ protein (GST-PDZ fusion) (Homo sapiens, UniProt Q15700); test: as above
T8 construct: made in house; host or cells: E. coli (DH5alpha, BL21 or JM109)
Outline: as §1

[9] = biological target: T9, PDZ protein (GST-PDZ fusion) (Homo sapiens, UniProt Q8NI35); test: as above; details: PDZ INADL
T9 construct: made in house; host or cells: E. coli (DH5alpha, BL21 or JM109)
Outline: as §1

[10] = biological target: T10, PDZ protein (GST-PDZ fusion) (Homo sapiens, UniProt Q9NZN5); test: as above; details: PDZ KIAA0382, PDZ Domain 1
T10 construct: made in house; host or cells: E. coli (DH5alpha, BL21 or JM109)
Outline: as §1

[11] = biological target: PDZ-domain polypeptide (GST/PDZ fusion protein); test: Apparent affinity (Kd) by titration of PL peptide in the G assay; details: read-out: Peptide Optimal Conc (Kd by titration of the PL peptide)
Outline: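 A fixed concentration of GST/PDZ fusion protein, 5 ug/ml by default, was mixed in solution with increasing labeled PL peptide (e.g. 0.1 uM-1 mM). Reaction times ranged from 10 minutes to 2 days at 4-37° C. Complexes were separated from free peptide and detected via the label as in the G assay, apparent affinity coming from the saturating concentration.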

T6 sequence (Q13796 whole entry, the tested form may be a part): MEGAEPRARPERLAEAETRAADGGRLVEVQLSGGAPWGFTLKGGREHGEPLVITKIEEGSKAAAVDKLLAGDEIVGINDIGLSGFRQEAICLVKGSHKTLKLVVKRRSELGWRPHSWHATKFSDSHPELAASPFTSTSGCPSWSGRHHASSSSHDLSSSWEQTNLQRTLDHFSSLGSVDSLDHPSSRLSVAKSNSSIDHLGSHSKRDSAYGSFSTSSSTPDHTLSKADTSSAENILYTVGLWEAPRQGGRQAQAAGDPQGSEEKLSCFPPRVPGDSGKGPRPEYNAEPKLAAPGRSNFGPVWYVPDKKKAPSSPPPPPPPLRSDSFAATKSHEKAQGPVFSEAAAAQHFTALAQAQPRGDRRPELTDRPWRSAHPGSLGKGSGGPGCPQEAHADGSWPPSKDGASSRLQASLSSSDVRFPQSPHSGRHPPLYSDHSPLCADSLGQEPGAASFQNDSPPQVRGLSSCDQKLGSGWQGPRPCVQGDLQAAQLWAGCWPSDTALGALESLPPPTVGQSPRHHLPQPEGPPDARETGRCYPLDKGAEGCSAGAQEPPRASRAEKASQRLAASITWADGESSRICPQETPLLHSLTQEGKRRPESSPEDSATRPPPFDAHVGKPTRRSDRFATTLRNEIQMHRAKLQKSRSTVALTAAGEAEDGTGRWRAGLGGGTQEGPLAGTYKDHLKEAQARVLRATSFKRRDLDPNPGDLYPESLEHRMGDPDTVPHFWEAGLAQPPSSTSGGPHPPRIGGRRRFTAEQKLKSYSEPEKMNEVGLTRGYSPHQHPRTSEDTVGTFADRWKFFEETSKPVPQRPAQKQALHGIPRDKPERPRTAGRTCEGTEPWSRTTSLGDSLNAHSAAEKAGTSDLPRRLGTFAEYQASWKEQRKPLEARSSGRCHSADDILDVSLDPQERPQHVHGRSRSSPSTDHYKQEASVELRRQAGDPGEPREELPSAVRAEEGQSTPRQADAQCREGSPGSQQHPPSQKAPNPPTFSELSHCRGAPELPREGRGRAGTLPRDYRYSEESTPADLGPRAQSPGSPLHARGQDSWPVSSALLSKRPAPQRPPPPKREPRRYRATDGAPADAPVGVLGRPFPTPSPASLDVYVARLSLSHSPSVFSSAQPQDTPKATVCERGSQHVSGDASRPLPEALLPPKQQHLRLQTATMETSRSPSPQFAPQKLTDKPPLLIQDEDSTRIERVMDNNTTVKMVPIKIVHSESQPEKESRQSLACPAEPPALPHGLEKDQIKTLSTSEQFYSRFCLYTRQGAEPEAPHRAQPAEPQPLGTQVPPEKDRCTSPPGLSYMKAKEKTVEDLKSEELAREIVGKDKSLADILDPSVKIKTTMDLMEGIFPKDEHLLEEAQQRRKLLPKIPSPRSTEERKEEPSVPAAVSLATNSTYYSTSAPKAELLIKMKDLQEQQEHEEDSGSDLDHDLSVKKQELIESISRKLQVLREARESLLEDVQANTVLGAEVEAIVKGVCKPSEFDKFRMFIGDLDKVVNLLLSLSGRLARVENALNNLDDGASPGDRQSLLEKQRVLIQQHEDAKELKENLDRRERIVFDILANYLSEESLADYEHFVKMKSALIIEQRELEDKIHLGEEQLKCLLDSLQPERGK
T10 sequence (Q9NZN5 whole entry, the tested form may be a part): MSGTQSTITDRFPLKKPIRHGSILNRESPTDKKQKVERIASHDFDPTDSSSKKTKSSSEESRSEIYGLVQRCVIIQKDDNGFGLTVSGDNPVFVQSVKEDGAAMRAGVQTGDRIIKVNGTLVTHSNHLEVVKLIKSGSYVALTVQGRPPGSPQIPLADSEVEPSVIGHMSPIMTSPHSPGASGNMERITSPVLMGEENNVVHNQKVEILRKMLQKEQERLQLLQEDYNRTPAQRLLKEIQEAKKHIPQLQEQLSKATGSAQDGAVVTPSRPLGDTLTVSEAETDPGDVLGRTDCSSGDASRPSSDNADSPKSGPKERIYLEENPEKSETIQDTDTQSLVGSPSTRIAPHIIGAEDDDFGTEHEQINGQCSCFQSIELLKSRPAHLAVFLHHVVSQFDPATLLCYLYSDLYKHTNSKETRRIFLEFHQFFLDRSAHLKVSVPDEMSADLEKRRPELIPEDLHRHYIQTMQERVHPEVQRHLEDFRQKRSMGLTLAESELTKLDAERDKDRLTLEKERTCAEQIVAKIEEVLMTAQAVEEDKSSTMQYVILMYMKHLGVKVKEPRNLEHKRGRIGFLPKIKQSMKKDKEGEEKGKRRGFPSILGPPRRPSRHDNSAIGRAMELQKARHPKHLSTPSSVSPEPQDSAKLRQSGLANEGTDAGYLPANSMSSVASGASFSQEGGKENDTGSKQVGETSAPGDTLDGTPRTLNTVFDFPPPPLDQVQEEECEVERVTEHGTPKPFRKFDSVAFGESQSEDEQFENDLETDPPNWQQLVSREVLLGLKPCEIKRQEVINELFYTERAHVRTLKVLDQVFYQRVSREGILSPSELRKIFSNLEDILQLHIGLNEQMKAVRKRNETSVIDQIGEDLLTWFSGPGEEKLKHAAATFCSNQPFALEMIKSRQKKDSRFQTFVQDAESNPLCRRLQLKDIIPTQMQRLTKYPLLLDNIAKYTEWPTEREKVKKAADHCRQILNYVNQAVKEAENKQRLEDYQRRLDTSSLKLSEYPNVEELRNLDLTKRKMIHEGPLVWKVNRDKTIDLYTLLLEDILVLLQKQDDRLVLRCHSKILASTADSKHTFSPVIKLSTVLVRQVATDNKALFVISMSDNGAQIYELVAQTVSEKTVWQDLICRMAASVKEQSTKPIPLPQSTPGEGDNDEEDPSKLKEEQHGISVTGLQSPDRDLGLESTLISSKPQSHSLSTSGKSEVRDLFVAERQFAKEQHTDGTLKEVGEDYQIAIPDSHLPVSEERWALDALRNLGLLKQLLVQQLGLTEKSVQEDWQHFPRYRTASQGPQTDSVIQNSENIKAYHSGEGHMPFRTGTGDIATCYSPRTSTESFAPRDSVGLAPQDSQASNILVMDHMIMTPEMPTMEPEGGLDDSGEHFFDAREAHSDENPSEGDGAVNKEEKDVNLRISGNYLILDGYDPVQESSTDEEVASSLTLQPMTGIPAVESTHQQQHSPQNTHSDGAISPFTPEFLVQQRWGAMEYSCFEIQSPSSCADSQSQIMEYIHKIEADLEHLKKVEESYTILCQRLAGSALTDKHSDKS
T5 sequence (Q12959 whole entry, the tested form may be a part): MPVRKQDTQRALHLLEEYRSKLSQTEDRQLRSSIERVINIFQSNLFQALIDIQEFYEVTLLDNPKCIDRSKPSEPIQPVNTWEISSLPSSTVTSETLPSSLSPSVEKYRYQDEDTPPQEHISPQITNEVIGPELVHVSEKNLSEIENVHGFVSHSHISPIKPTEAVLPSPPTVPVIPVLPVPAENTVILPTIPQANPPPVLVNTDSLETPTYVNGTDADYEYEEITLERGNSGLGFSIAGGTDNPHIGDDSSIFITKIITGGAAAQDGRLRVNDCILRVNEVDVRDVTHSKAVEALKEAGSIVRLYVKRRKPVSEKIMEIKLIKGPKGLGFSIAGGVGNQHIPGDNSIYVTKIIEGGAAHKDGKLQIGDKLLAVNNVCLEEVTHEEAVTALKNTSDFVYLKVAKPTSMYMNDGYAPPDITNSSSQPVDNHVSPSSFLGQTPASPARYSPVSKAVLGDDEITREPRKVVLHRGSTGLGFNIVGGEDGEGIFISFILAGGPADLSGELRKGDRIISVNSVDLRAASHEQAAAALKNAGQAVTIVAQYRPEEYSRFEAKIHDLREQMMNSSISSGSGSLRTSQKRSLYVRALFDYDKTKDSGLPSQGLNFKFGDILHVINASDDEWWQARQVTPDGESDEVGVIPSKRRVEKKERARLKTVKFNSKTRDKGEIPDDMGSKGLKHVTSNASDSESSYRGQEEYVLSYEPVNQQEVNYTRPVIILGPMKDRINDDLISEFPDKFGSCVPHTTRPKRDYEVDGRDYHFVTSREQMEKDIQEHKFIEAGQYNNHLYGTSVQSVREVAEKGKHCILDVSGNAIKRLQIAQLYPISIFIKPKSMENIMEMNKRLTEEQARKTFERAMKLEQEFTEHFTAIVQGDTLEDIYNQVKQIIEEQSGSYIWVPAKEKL
T4 sequence (P78352 whole entry, the tested form may be a part): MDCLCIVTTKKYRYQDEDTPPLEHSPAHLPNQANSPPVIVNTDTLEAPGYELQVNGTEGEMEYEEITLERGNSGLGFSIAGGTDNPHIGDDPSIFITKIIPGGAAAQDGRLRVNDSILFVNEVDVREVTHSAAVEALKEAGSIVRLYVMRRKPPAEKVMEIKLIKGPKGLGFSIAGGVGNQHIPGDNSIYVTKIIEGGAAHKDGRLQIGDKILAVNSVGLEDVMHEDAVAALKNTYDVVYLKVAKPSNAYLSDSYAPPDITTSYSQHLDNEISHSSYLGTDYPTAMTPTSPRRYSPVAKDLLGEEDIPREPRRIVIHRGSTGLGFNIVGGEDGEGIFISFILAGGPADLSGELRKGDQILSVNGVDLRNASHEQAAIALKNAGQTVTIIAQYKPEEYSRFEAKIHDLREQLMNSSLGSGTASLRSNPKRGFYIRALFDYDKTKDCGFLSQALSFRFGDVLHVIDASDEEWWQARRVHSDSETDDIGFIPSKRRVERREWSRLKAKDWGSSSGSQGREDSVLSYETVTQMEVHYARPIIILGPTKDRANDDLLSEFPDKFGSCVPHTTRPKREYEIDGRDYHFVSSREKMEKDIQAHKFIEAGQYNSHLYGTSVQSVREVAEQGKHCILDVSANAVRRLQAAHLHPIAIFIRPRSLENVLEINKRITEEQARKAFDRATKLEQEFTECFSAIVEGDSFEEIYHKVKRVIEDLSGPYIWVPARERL

Which results are given for TQGFPGPATWRRISSLESEV?
Classification [1]: 5 (A450 nm of 4 more than 2× repeated); Classification ([2]; PDZ AIPC, PDZ Domain 1): 3 (A450 nm 2-3); Classification [3]: 5 (A450 nm of 4 more than 2× repeated); Classification ([4]; PDZ PSD95, PDZ Domain 1): 5 (A450 nm of 4 more than 2× repeated); Classification ([4]; PDZ PSD95, PDZ Domain 1, 2, 3): 5 (A450 nm of 4 more than 2× repeated); Classification ([4]; PDZ PSD95, PDZ Domain 3): 2 (A450 nm 1-2); Classification ([5]; PDZ DLG1, PDZ Domain 1): 5 (A450 nm of 4 more than 2× repeated); Classification ([5]; PDZ DLG1, PDZ Domain 1, 2): 5 (A450 nm of 4 more than 2× repeated); Classification ([5]; PDZ DLG1, PDZ Domain 2): 5 (A450 nm of 4 more than 2× repeated); Classification [6]: 1 (A450 nm 0-1); Classification ([7]; PDZ KIAA0147, PDZ Domain 1): 5 (A450 nm of 4 more than 2× repeated); Classification ([7]; PDZ KIAA0147, PDZ Domain 2): 1 (A450 nm 0-1); Classification ([7]; PDZ KIAA0147, PDZ Domain 3): 1 (A450 nm 0-1); Classification ([8]; PDZ DLG2, PDZ Domain 1): 4 (A450 nm 3-4); Classification ([8]; PDZ DLG2, PDZ Domain 2): 5 (A450 nm of 4 more than 2× repeated); Classification ([9]; PDZ Domain 3): 2 (A450 nm 1-2); Classification ([9]; PDZ Domain 5): 1 (A450 nm 0-1); Classification ([9]; PDZ Domain 8): 1 (A450 nm 0-1); Classification [10]: 1 (A450 nm 0-1)

What does the source list for `CC[C@H](C)[C@H](NC(=O)[C@H](CO)NC(=O)[C@H](CCC(=O)O)NC(=O)[C@H](Cc1ccc(O)cc1)NC(=O)[C@H](CC(=O)O)NC(=O)[C@H](CC(N)=O)NC(=O)[C@H](CCC(=O)O)NC(=O)[C@H](CCCCN)NC(=O)CCCC[C@@H]1SC[C@@H]2NC(=O)N[C@@H]21)C(=O)N[C@@H](CO)C(=O)N[C@@H](CC(=O)O)C(=O)N[C@@H](CC(C)C)C(=O)N[C@@H](CCC(N)=O)C(=O)N[C@@H](CCC(N)=O)C(=O)NCC(=O)N[C@@H](CCCNC(=N)N)C(=O)N[C@@H](CC(=O)O)C(=O)N[C@H](C(=O)N[C@H](C(=O)N[C@@H](CCCNC(=N)N)C(=O)N[C@@H](CC(C)C)C(=O)O)[C@@H](C)O)[C@@H](C)CC` [PAG] (Biotin-KENDYESISDLQQGRDITRL-OH; C-terminus assumed)?
Classification [3]: 2 (A450 nm 1-2); Classification [6]: 2 (A450 nm 1-2); Classification [10]: 1 (A450 nm 0-1)

With `CC(C)C[C@H](NC(=O)[C@H](C)NC(=O)[C@@H](NC(=O)[C@@H](NC(=O)[C@H](Cc1c[nH]cn1)NC(=O)[C@H](CC(C)C)NC(=O)CNC(=O)[C@H](CCC(N)=O)NC(=O)CNC(=O)CNC(=O)[C@H](C)NC(=O)[C@H](C)NC(=O)[C@H](CCCNC(=N)N)NC(=O)[C@H](C)NC(=O)[C@H](CO)NC(=O)[C@H](CC(=O)O)NC(=O)[C@H](CC(=O)O)NC(=O)[C@H](Cc1c[nH]c2ccccc12)NC(=O)[C@H](C)NC(=O)CCCC[C@@H]1SC[C@@H]2NC(=O)N[C@@H]21)C(C)C)[C@@H](C)O)C(=O)O` [LPAP] (Biotin-AWDDSARAAGGQGLHVTAL-OH; C-terminus assumed) as the compound, how does the Classification [6] read?
Its Classification is 1 (A450 nm 0-1).

And the Classification ([7]; PDZ KIAA0147, PDZ Domain 1)?
Its Classification is 3 (A450 nm 2-3).

And the Classification [10]?
Its Classification is 5 (A450 nm of 4 more than 2× repeated).

What about the Kd ([11]; PDZ FLJ 00011, PDZ Domain 1) of the same compound?
Its Kd is 1.5 µM.

With “APC—adenomatous polyposis coli protein (ESSGTQSPKRHSGSYLVTSV)” as the compound, how does the Classification [1] read?
Its Classification is 3 (A450 nm 2-3).

And the Classification [3]?
The Classification was 2 (A450 nm 1-2).

What about the Classification ([4]; PDZ PSD95, PDZ Domain 1, 2, 3) of the same compound?
The Classification was 5 (A450 nm of 4 more than 2× repeated).

What about the Classification ([5]; PDZ DLG1, PDZ Domain 1, 2) of the same compound?
The Classification was 5 (A450 nm of 4 more than 2× repeated).

And the Classification ([7]; PDZ KIAA0147, PDZ Domain 1)?
The Classification was 1 (A450 nm 0-1).

And the Classification ([9]; PDZ Domain 8)?
Its Classification is 2 (A450 nm 1-2).

What about the Classification [10] of the same compound?
The Classification was 1 (A450 nm 0-1).

With `CC[C@H](C)[C@H](NC(=O)CNC(=O)[C@H](CO)NC(=O)[C@H](Cc1ccccc1)NC(=O)[C@@H](NC(=O)[C@H](CS)NC(=O)CNC(=O)CNC(=O)[C@H](C)NC(=O)[C@@H]1CCCN1C(=O)[C@@H](NC(=O)[C@@H]1CCCN1C(=O)CCCC[C@@H]1SC[C@@H]2NC(=O)N[C@@H]21)[C@@H](C)CC)[C@@H](C)O)C(=O)N[C@@H](Cc1ccccc1)C(=O)N1CCC[C@H]1C(=O)N[C@H](C(=O)N[C@@H](CC(C)C)C(=O)N[C@H](C(=O)N[C@@H](CO)C(=O)N1CCC[C@H]1C(=O)N[C@@H](CC(C)C)C(=O)O)[C@@H](C)O)[C@@H](C)O` [KIA 1481] (Biotin-PIPAGGCTFSGIFPTLTSPL-OH; C-terminus assumed) as the compound, how does the Classification [1] read?
Its Classification is 2 (A450 nm 1-2).

And the Classification [6]?
The Classification was 5 (A450 nm of 4 more than 2× repeated).

And the Classification ([7]; PDZ KIAA0147, PDZ Domain 1)?
The Classification was 2 (A450 nm 1-2).

And the Classification ([9]; PDZ Domain 5)?
The Classification was 1 (A450 nm 0-1).

What about the Classification [10] of the same compound?
Its Classification is 5 (A450 nm of 4 more than 2× repeated).

How did the Classification [6] turn out when “LASKSAEEGKQIPDSLSTDL (Biotin-LASKSAEEGKQIPDSLSTDL) [Dock2]” was run?
Its Classification is 2 (A450 nm 1-2).

What about the Classification ([7]; PDZ KIAA0147, PDZ Domain 1) of the same compound?
The Classification was 1 (A450 nm 0-1).

What about the Classification ([9]; PDZ Domain 3) of the same compound?
The Classification was 1 (A450 nm 0-1).

And the Classification [10]?
Its Classification is 1 (A450 nm 0-1).

For `CC[C@H](C)[C@H](NC(=O)[C@H](CCCCN)NC(=O)[C@@H](NC(=O)[C@H](CO)NC(=O)[C@@H]1CCCN1C(=O)[C@H](Cc1ccccc1)NC(=O)[C@@H](NC(=O)[C@@H](NC(=O)[C@H](CCCNC(=N)N)NC(=O)[C@H](CCC(=O)O)NC(=O)[C@H](CC(C)C)NC(=O)[C@H](CC(C)C)NC(=O)[C@H](CC(C)C)NC(=O)[C@@H](NC(=O)CNC(=O)[C@@H](NC(=O)CCCC[C@@H]1SC[C@@H]2NC(=O)N[C@@H]21)C(C)C)[C@@H](C)O)C(C)C)[C@@H](C)CC)C(C)C)C(=O)N[C@@H](C)C(=O)N[C@H](C(=O)N[C@@H](CC(C)C)C(=O)N[C@H](C(=O)O)C(C)C)[C@@H](C)O` [Adenovirus E4 Type9], which Classification ([2]; PDZ KIAA0300, PDZ Domain 1, PL peptide 10 uM) is on record?
Its Classification is 1 (A450 nm 0-1).

What about the Classification ([3]; Protein Optimal Conc 5) of the same compound?
Its Classification is 5 (A450 nm of 4 more than 2× repeated).

What about the Classification ([4]; PDZ PSD95, PDZ Domain 1, 2, 3, PL peptide 10 uM) of the same compound?
The Classification was 5 (A450 nm of 4 more than 2× repeated).

And the Classification ([4]; PDZ PSD95, PDZ Domain 1, Protein Optimal Conc 5)?
The Classification was 4 (A450 nm 3-4).

And the Classification ([5]; PDZ DLG1, PDZ Domain 1, 2, PL peptide 10 uM)?
The Classification was 5 (A450 nm of 4 more than 2× repeated).

And the Classification ([5]; PDZ DLG1, PDZ Domain 1, Protein Optimal Conc 0.5)?
The Classification was 4 (A450 nm 3-4).

And the Classification ([5]; PDZ DLG1, PDZ Domain 2, Protein Optimal Conc 0.3)?
The Classification was 5 (A450 nm of 4 more than 2× repeated).

What about the Classification ([8]; PDZ DLG2, PDZ Domain 2, Protein Optimal Conc 0.5) of the same compound?
Its Classification is 5 (A450 nm of 4 more than 2× repeated).

What about the Classification ([9]; PDZ Domain 8, PL peptide 10 uM) of the same compound?
The Classification was 2 (A450 nm 1-2).

And the Classification ([10]; PL peptide 10 uM)?
The Classification was 1 (A450 nm 0-1).

And the Kd ([11]; PDZ BAI-1, PDZ Domain 2, Protein Optimal Conc 0.3)?
The Kd was 0.02 µM.

What about the Kd ([11]; PDZ BAI-1, PDZ Domain 3, Protein Optimal Conc 0.5) of the same compound?
Its Kd is 0.075 µM.

What about the Kd ([11]; PDZ BAI-1, PDZ Domain 4, Protein Optimal Conc 0.3) of the same compound?
The Kd was 0.1 µM.

What about the Kd ([11]; PDZ HEMBA 1003117, PDZ Domain 1, Protein Optimal Conc 5) of the same compound?
Its Kd is 0.3 µM.

Source: patent publication US20050282743A1, “Molecular interactions in cells” (Arbor Vita Corporation, priority 2001, published 2005)
